Laboratory results reported in patent US20260250320A1, “LIPIDATED PEPTIDE INHIBITORS OF INTERLEUKIN-23 RECEPTOR” (Janssen Pharmaceutica NV, priority 2023, published 2026).
*1 amine or outer side, *2 acyl side, *3 side chain or, on linkers, in order; H or OH if unused. Where a SMILES comes first, the peptide text is derived from it. Bridges are numbered along the chain shown (N, C = ends). Side-chain parts run from the residue outwards. [ ]: non-standard residue; d: D form. The star is where a group is joined. X34 = O=C(O)CCCCCCCCCCCCCCCCC(=O)C[C@@H](CCC(=O)NCCOCCOCC(=O)NCCOCCOCCN*)C(=O)O; Me3N+(CH2)2O(CH2)2O(CH2)2CO = C[N+](C)(C)CCOCCOCCC(=O)*; PEG12 = NCCOCCOCCOCCOCCOCCOCCOCCOCCOCCOCCOCCOCCC(=O)O; Trp(7-Me) = Cc1cccc2c(C[C@H](N)C(=O)O)c[nH]c12; C20 diacid = O=C(O)CCCCCCCCCCCCCCCCCCC(=O)*; C18 diacid = O=C(O)CCCCCCCCCCCCCCCCC(=O)*; CH2CH2OCH2CH2NMe3+ = C[N+](C)(C)CCOCC*; γGlu = O=C(O)[C@H](CCC(=O)[*:2])N[*:1]; 2Nal = N[C@@H](Cc1ccc2ccccc2c1)C(=O)O; AEF = NCCOc1ccc(C[C@H](N)C(=O)O)cc1; X2 = C[N+](C)(C)C[C@@H](CC(=O)O)N*; 3Pal = N[C@@H](Cc1cccnc1)C(=O)O; Lys(Me) = CNCCCC[C@H](N)C(=O)O; NMeK = CN[C@@H](CCCCN)C(=O)O; Pen = CC(C)(S)[C@H](N)C(=O)O; Suc = O=C(CCC(=O)[*:2])[*:1]; Thp = NC1(C(=O)O)CCOCC1; X1 = C[N+](C)(C)CCCCC*; AEEA = NCCOCCOCC(=O)O; Sar = CNCC(=O)O

Experiments:
[1] = system: IL-23-stimulated phosphorylated STAT3 in peripheral blood mononuclear cells (PBMCs); assay: PBMC pSTAT3 Assay; assay type: cell-based; conditions: PBMCs from healthy donors; 30 min preincubation with peptide; IL-23 5 ng/mL for 30 min; phospho-STAT3 by MSD
In short: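 Phospho-STAT3 quantified by Meso Scale assay in lysates of PBMCs exposed to IL-23 (5 ng/mL, 30 min, 37 °C) after 30 min peptide pretreatment. Cells were cryopreserved donor PBMCs activated 4 days with anti-CD3 plus IL-1β (100 ng/mL) and starved ~4 h; IC50 reported.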

IL-23R = biological target: T1, IL-23R (Homo sapiens, UniProt Q5VWK5); assay: IL23R Reporter Assay; assay type: cell-based; conditions: HEK293 cells containing IL-23R, IL-12Rβ1 and STAT-inducible firefly luciferase reporter; 10 ng/mL IL-23 (EC90); 5 h
T1 construct: HEK293 cells containing IL-23R, IL-12Rβ1 and a firefly luciferase reporter gene driven by a STAT-inducible promoter (Promega); host or cells: HEK293
T1 sequence (Q5VWK5 24-629): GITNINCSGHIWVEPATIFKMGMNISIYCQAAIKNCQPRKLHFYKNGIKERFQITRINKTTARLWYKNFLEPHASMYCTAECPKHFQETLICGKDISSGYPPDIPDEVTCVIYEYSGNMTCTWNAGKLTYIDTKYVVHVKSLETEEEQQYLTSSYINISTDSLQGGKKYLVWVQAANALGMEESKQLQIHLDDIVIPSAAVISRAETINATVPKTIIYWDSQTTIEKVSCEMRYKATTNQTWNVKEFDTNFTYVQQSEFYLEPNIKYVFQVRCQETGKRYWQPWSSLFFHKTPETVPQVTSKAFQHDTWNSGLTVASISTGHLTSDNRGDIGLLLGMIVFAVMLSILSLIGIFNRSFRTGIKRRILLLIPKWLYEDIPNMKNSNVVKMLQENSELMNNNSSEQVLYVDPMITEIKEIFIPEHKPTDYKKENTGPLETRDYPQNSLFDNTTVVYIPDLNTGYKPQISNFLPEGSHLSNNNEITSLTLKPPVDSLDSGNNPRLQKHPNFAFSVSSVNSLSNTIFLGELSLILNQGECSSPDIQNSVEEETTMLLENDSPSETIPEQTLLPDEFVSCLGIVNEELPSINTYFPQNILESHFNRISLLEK
In short: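 IC50 values were fitted with a 4-parameter Hill equation to luciferase signal, scaled between IL-23-only wells (0% inhibition) and 30 μM reference inhibitor (100%). The readout was a STAT-inducible reporter in IL-23R/IL-12Rβ1 HEK293 cells, stimulated with added 10 ng/mL IL-23 (EC90) for 5 h at 37° C and developed with BioGlo.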

Row | IC50 (IL-23R) | SMILES | IC50 [1]
1 | < 50 nM | CC(=O)N[C@@H]1C(=O)N[C@@H](CC(N)=O)C(=O)N[C@@H]([C@@H](C)O)C(=O)N[C@@H](Cc2c[nH]c3ccccc23)C(=O)N[C@@H](CCCCNC(=O)CCOCCOCCOCCOCCOCCOCCOCCOCCOCCOCCOCCOCCNC(=O)CC[C@H](NC(=O)CCCCCCCCCCCCCCCCC(=O)O)C(=O)O)C(=O)N[C@H](C(=O)N[C@@H](Cc2ccc(OCCN)cc2)C(=O)N[C@@H](Cc2ccc3ccccc3c2)C(=O)NC2(C(=O)N[C@@H](CCC(=O)O)C(=O)N[C@@H](CC(N)=O)C(=O)N[C@@H](Cc3cccnc3)C(=O)N(C)CC(N)=O)CCOCC2)C(C)(C)SSC1(C)C [compound 96, MeCO-Pen(3)-N-T-7MeW-K(PEG12gEC18OH)-Pen(3)-AEF-2Nal-THP-E-N-3Pya-Sar-CONH2] | < 0.5 nM
2 | 50 to 500 nM | CC(=O)NCCCC[C@@H]1NC(=O)[C@H](Cc2c[nH]c3c(C)cccc23)NC(=O)[C@H]([C@@H](C)O)NC(=O)[C@H](CC(N)=O)NC(=O)[C@@H](NC(=O)[C@@H](CCCNC(=N)N)NC(=O)CCC(=O)N[C@H](CC(=O)O)C[N+](C)(C)C)C(C)(C)SSC(C)(C)[C@@H](C(=O)N[C@@H](Cc2ccc(OCCN)cc2)C(=O)N[C@@H](Cc2ccc3ccccc3c2)C(=O)NC2(C(=O)N[C@@H](CCC(=O)O)C(=O)N[C@@H](CC(N)=O)C(=O)N[C@@H](Cc3cccnc3)C(=O)N(C)[C@@H](CCCCNC(=O)COCCOCCNC(=O)COCCOCCNC(=O)CC[C@H](NC(=O)CCCCCCCCCCCCCCCCC(=O)O)C(=O)O)C(N)=O)CCOCC2)NC1=O [compound 31, succiniccarn-r-Pen(3)-N-T-7MeW-K(Ac)-Pen(3)-AEF-2Nal-THP-E-N-3Pya-NMeK(PEG2PEG2gEC18OH)-CONH2] ({X2-Suc}-[dR][Pen]NT[Trp(7-Me)]K(Ac)[Pen][AEF][2Nal][Thp]EN[3Pal][NMeK]([AEEA-AEEA-γGlu-C18 diacid])-NH2; disulfide 2-7) | < 0.5 nM
3 | < 50 nM | CC(=O)N[C@H](CCCNC(=N)N)C(=O)N[C@@H]1C(=O)N[C@@H](CC(N)=O)C(=O)N[C@@H]([C@@H](C)O)C(=O)N[C@@H](Cc2c[nH]c3c(C)cccc23)C(=O)N[C@@H](CCCCN(C)C(=O)CCOCCOCC[N+](C)(C)C)C(=O)N[C@H](C(=O)N[C@@H](Cc2ccc(OCCN)cc2)C(=O)N[C@@H](Cc2ccc3ccccc3c2)C(=O)NC2(C(=O)N[C@@H](CCC(=O)O)C(=O)N[C@@H](CC(N)=O)C(=O)N[C@@H](Cc3cccnc3)C(=O)N(C)CC(=O)N[C@@H](CCCCNC(=O)COCCOCCNC(=O)COCCOCCNC(=O)CC[C@H](NC(=O)CCCCCCCCCCCCCCCCC(=O)O)C(=O)O)C(N)=O)CCOCC2)C(C)(C)SSC1(C)C [compound 70, MeCO-r-Pen(3)-N-T-7MeW-K(NMecPEG3a)-Pen(3)-AEF-2Nal-THP-E-N-3Pya-Sar-K(PEG2PEG2C18OH)-CONH2] (Ac-[dR][Pen]NT[Trp(7-Me)][Lys(Me)](Me3N+(CH2)2O(CH2)2O(CH2)2CO)[Pen][AEF][2Nal][Thp]EN[3Pal][Sar]K([AEEA-AEEA-γGlu-C18 diacid])-NH2; disulfide 2-7) | < 0.5 nM
4 | 50 to 500 nM | CC(=O)N(C)CCCC[C@@H]1NC(=O)[C@H](Cc2c[nH]c3c(C)cccc23)NC(=O)[C@H]([C@@H](C)O)NC(=O)[C@H](CC(=O)N(C)C)NC(=O)[C@@H](NC(=O)CCOCCOCC[N+](C)(C)C)C(C)(C)SSC(C)(C)[C@@H](C(=O)N[C@@H](Cc2ccc(OCCCCC[N+](C)(C)C)cc2)C(=O)N[C@@H](Cc2ccc3ccccc3c2)C(=O)NC2(C(=O)N[C@@H](CCCCN(C)C(C)=O)C(=O)N[C@@H](CC(N)=O)C(=O)N[C@@H](Cc3cccnc3)C(=O)N(C)CC(=O)NCCOCCOCCNC(=O)COCCOCCNC(=O)CC[C@H](CC(=O)CCCCCCCCCCCCCCCCC(=O)O)C(=O)O)CCOCC2)NC1=O [compound 145, cPEG3aCO-Pen(3)-N(N(Me)2)-T-7MeW-K(NMeAc)-Pen(3)-TMAPF-2Nal-THP-K(NMeAc)-N-3Pya-Sar-CO(PEG2PEG2gEC18OH)] ({Me3N+(CH2)2O(CH2)2O(CH2)2CO}-[Pen]D(NMe2)T[Trp(7-Me)][Lys(Me)](Ac)[Pen]Y(X1)[2Nal][Thp][Lys(Me)](Ac)N[3Pal][Sar]-X34; disulfide 1-6) | ≥ 5 nM
5 | 50 to 500 nM | CC(=O)N[C@H](CCCNC(=N)N)C(=O)N[C@@H]1C(=O)N[C@@H](CC(N)=O)C(=O)N[C@@H]([C@@H](C)O)C(=O)N[C@@H](Cc2c[nH]c3c(C)cccc23)C(=O)N[C@@H](CCCCNC(=O)COCCOCCNC(=O)COCCOCCNC(=O)CC[C@H](NC(=O)CCCCCCCCCCCCCCCCC(=O)O)C(=O)O)C(=O)N[C@H](C(=O)N[C@@H](Cc2ccc(OCCNC(=O)CCC(=O)N[C@H](CC(=O)O)C[N+](C)(C)C)cc2)C(=O)N[C@@H](Cc2ccc3ccccc3c2)C(=O)NC2(C(=O)N[C@@H](CCC(=O)O)C(=O)N[C@@H](CC(N)=O)C(=O)N[C@@H](Cc3cccnc3)C(=O)N(C)CC(N)=O)CCOCC2)C(C)(C)SSC1(C)C [compound 36, MeCO-r-Pen(3)-N-T-7MeW-K(PEG2PEG2gEC18OH)-Pen(3)-AEF(d)-2Nal-THP-E-N-3Pya-Sar-CONH2] (Ac-[dR][Pen]NT[Trp(7-Me)]K([AEEA-AEEA-γGlu-C18 diacid])[Pen][AEF]([Suc-X2])[2Nal][Thp]EN[3Pal][Sar]-NH2; disulfide 2-7) | < 0.5 nM
6 | < 50 nM | CC(=O)NCCCC[C@@H]1NC(=O)[C@H](Cc2c[nH]c3c(C)cccc23)NC(=O)[C@H]([C@@H](C)O)NC(=O)[C@H](CC(N)=O)NC(=O)[C@@H](NC(=O)[C@@H](CCCCNC(=O)CCOCCOCCOCCOCCOCCOCCOCCOCCOCCOCCOCCOCCNC(=O)CC[C@H](NC(=O)CCCCCCCCCCCCCCCCC(=O)O)C(=O)O)NC(C)=O)C(C)(C)SSC(C)(C)[C@@H](C(=O)N[C@@H](Cc2ccc(OCCN)cc2)C(=O)N[C@@H](Cc2ccc3ccccc3c2)C(=O)NC2(C(=O)N[C@@H](CCCCNC(C)=O)C(=O)N[C@@H](CC(N)=O)C(=O)N[C@@H](Cc3cccnc3)C(=O)N(C)CC(N)=O)CCOCC2)NC1=O [compound 98, MeCO-k(PEG12gEC18OH)-Pen(3)-N-T-7MeW-K(Ac)-Pen(3)-AEF-2Nal-THP-K(Ac)-N-3Pya-Sar-CONH2] (Ac-[dK]([PEG12-γGlu-C18 diacid])[Pen]NT[Trp(7-Me)]K(Ac)[Pen][AEF][2Nal][Thp]K(Ac)N[3Pal][Sar]-NH2; disulfide 2-7) | < 0.5 nM
7 | < 50 nM | CC(=O)N(C)CCCC[C@@H]1NC(=O)[C@H](Cc2c[nH]c3c(C)cccc23)NC(=O)[C@H]([C@@H](C)O)NC(=O)[C@H](CC(=O)N(C)C)NC(=O)[C@@H](NC(=O)[C@@H](CCCCNC(=O)COCCOCCNC(=O)COCCOCCNC(=O)CC[C@H](NC(=O)CCCCCCCCCCCCCCCCCCC(=O)O)C(=O)O)NC(=O)CCOCCOCC[N+](C)(C)C)C(C)(C)SSC(C)(C)[C@@H](C(=O)N[C@@H](Cc2ccc(OCCOCC[N+](C)(C)C)cc2)C(=O)N[C@@H](Cc2ccc3ccccc3c2)C(=O)NC2(C(=O)N[C@@H](CCCCN(C)C(C)=O)C(=O)N[C@@H](CC(N)=O)C(=O)N[C@@H](Cc3cccnc3)C(=O)N(C)CC(=O)N(C)C)CCOCC2)NC1=O [compound 129, cPEG3aCO-K(PEG2PEG2gEC20OH)-Pen(3)-N(N(Me)2)-T-7MeW-K(NMeAc)-Pen(3)-TMAPF-2Nal-THP-K(NMeAc)-N-3Pya-Sar-CON(Me)2] ({Me3N+(CH2)2O(CH2)2O(CH2)2CO}-[dK]([AEEA-AEEA-γGlu-C20 diacid])[Pen]D(NMe2)T[Trp(7-Me)][Lys(Me)](Ac)[Pen]Y(CH2CH2OCH2CH2NMe3+)[2Nal][Thp][Lys(Me)](Ac)N[3Pal][Sar]-NMe2; disulfide 2-7) | < 0.5 nM
